Read-outs that look alike come from different tables or passages of the source.

For data set [1], the system named is HT-29 colon adenocarcinoma. Description: MTT cytotoxicity assay, HT-29. The note with it: for IC50: Homo sapiens, HT-29, […]. (Formazan colour is commonly taken as a measure of viable cells.)
Another data set has as its system tubulin. Kind of data set: Inhibition of tubulin polymerization (turbidimetry). In kind it is biochemical, bovine.
A further data set relates to MLM melanoma. Description: MTT cytotoxicity assay, MLM.
Another data set relates to MCF-7 breast carcinoma. Kind of data set: MTT cytotoxicity assay, MCF-7. Conditions: for IC50: Homo sapiens, MCF7, […].
For another data set, the system named is A-549 lung carcinoma. Kind of data set: MTT cytotoxicity assay, A-549. Conditions: for IC50: Homo sapiens, A549, […].
The subject of a further data set is SKMEL-5 melanoma. Kind of data set: MTT cytotoxicity assay, SKMEL-5. The note with it: for IC50: Homo sapiens, SK-MEL-5, […], read-out: Cytotoxicity ED50, SKMEL-5.
Setting [2] is: read-out: Cytotoxicity ED50, HT-29.
The mark [3] stands for this setting: second series (Tables V-VII, IX), read-out: Inhibition of Tubulin Polymerization IC50 (±S.D.).
The mark [4] stands for this setting: read-out: Cytotoxicity ED50, MLM.
[5] abbreviates: read-out: Cytotoxicity ED50, MCF-7.
Setting [6] is: read-out: Cytotoxicity ED50, A-549.

Turning to `COc1ccc(Cc2c3cc(OC)c(OC)c(OC)c3cc[n+]2C)cc1` [compound 37, 1-(4'-Methoxybenzyl)-5,6,7-trimethoxyisoquinoline Methiodide], the IC50 in data set [1] (setting [2]) is 20.5 µM; in the data set on tubulin (setting [3]), above 40 µM; in the data set with MLM melanoma (setting [4]), above 25 µM; in the data set on MCF-7 breast carcinoma (setting [5]) it was above 25 µM; in the data set with A-549 lung carcinoma (setting [6]) it was 19.5 µM; in the data set on SKMEL-5 melanoma, 2.1 µM.

As to `COc1ccc(/C(=C\c2cc(OC)c(OC)c(OC)c2)C(=O)O)cc1` [23c, (E)-2-(4-Methoxyphenyl)-3-(3,4,5-trimethoxyphenyl)-prop-2-enoic acid], the IC50 in data set [1] (setting [2]) is 5.9 µM; with tubulin (setting [3]) it was above 40 µM; in the data set on MLM melanoma (setting [4]), above 25 µM; in the data set with MCF-7 breast carcinoma (setting [5]), 1.9 µM; in the data set on A-549 lung carcinoma (setting [6]), 5.2 µM; in the data set with SKMEL-5 melanoma, 2.3 µM.

For `COc1ccc(C2Cc3cc(OC)c(OC)c(OC)c3C2)cc1` (centres unmarked) [compound 35, 2-(4-Methoxyphenyl)-4,5,6-trimethoxyindane], the IC50 in data set [1] (setting [2]) is 12.8 µM; with tubulin (setting [3]) it was above 40 µM; in the data set with MLM melanoma (setting [4]), above 25 µM; in the data set with MCF-7 breast carcinoma (setting [5]) it was above 25 µM; in the data set with A-549 lung carcinoma (setting [6]), above 25 µM; in the data set with SKMEL-5 melanoma, 19.5 µM.

As to `COc1ccc(/C=C/c2cc(OC)c(OC)c(OC)c2)cc1` [compound 6a, (E)-1-(4-Methoxyphenyl)-2-(3,4,5-trimethoxyphenyl)ethene], the IC50 is 1.82 µM in data set [1] (read-out: Cytotoxicity ED50, HT-29, HT-29, MTT, six days); above 50 µM in the data set on tubulin (first series (Table VIII and text), 37° C., 20 min, read-out: Tubulin polymerization IC50 (±S.D.)); 2.07 µM in the data set on MLM melanoma (read-out: Cytotoxicity ED50, MLM, MLM, MTT, six days); 1.05 µM with MCF-7 breast carcinoma (read-out: Cytotoxicity ED50, MCF-7, MCF-7, MTT, six days); 1.18 µM in the data set with A-549 lung carcinoma (read-out: Cytotoxicity ED50, A-549, A-549, MTT, six days); 0.81 µM with SKMEL-5 melanoma.

Take `COc1ccc(/C=C(/C(=O)O)c2cc(OC)c(OC)c(OC)c2)cc1` [compound 23a, (E)-3-(4-Methoxyphenyl)-2-(3,4,5-trimethoxyphenyl)-prop-2-enoic acid]: the IC50 was 8.4 µM in data set [1] (setting [2]); above 40 µM in the data set with tubulin (setting [3]); above 25 µM in the data set with MLM melanoma (setting [4]); 12.8 µM in the data set with MCF-7 breast carcinoma (setting [5]); 13.9 µM with A-549 lung carcinoma (setting [6]); 9.1 µM with SKMEL-5 melanoma.

For the compound `COc1ccc2c(c1)CN1CCc3c(cc(OC)c(OC)c3OC)C1C2` (centres unmarked) [compound 48, 5,8,13,13a-Tetrahedro-2,3,4,10-tetramethoxy-6H-dibenzo-(a,g)quinolizine], the IC50 in data set [1] (setting [2]) was above 25 µM; in the data set on tubulin (setting [3]), above 40 µM; with MLM melanoma (setting [4]), above 25 µM; with MCF-7 breast carcinoma (setting [5]), above 25 µM; with A-549 lung carcinoma (setting [6]) it was above 25 µM; in the data set with SKMEL-5 melanoma, above 25 µM.

For the compound `COc1ccc(NC(=O)c2cc(OC)cc(OC)c2)cc1` [11d], the IC50 is 14.5 µM in data set [1] (setting [2]); above 25 µM in the data set with MLM melanoma (setting [4]); 5.47 µM with MCF-7 breast carcinoma (setting [5]); 9.02 µM in the data set on A-549 lung carcinoma (setting [6]); 11.9 µM in the data set on SKMEL-5 melanoma. Further, the “inhibition of tubulin polymerization (in words)” value with tubulin was “lower inhibitory activity”.

On to `COc1ccc2ccc3cc(OC)c(OC)c(OC)c3c2c1` [32b, 2,3,4,6-Tetramethoxyphenanthrene], for which the IC50 was 1.1 µM in data set [1] (setting [2]); above 40 µM in the data set on tubulin (setting [3]); above 25 µM in the data set on MLM melanoma (setting [4]); above 25 µM with MCF-7 breast carcinoma (setting [5]); above 25 µM in the data set on A-549 lung carcinoma (setting [6]); 12.5 µM in the data set with SKMEL-5 melanoma.

As for `COc1ccc(C(=O)c2nccc3c(OC)c(OC)c(OC)cc23)cc1` [compound 39, 1-(4'-Methoxybenzoyl)-5,6,7-trimethoxyisoquinoline], the IC50 in data set [1] (setting [2]) is above 25 µM; in the data set on tubulin (setting [3]), above 40 µM; with MLM melanoma (setting [4]) it was above 25 µM; in the data set with MCF-7 breast carcinoma (setting [5]) it was above 25 µM; in the data set with A-549 lung carcinoma (setting [6]), above 25 µM; with SKMEL-5 melanoma it was above 25 µM.

Take `COc1ccc(C(=O)c2c3cc(OC)c(OC)c(OC)c3cc[n+]2C)cc1` [compound 40, 1-(4'-Methoxybenzoyl)-5,6,7-trimethoxyisoquinoline Methiodide]: the IC50 in data set [1] (setting [2]) is above 25 µM; in the data set on tubulin (setting [3]) it was above 40 µM; in the data set with MLM melanoma (setting [4]) it was above 25 µM; with MCF-7 breast carcinoma (setting [5]) it was above 25 µM; in the data set with A-549 lung carcinoma (setting [6]), above 25 µM; in the data set on SKMEL-5 melanoma, above 25 µM.

Regarding `COc1cc(/C=C\c2ccc(C(C)(C)C)cc2)cc(OC)c1OC` [compound 15g, (Z)-1-(4-t-Butylphenyl)-2-(3,4,5-trimethoxyphenyl)ethene], the IC50 in data set [1] (setting [2]) is 0.88 µM; with tubulin (setting [3]), above 40 µM; in the data set with MLM melanoma (setting [4]), 4.32 µM; in the data set on MCF-7 breast carcinoma (setting [5]) it was 1.57 µM; with A-549 lung carcinoma (setting [6]), 1.02 µM; in the data set with SKMEL-5 melanoma, 0.21 µM.

With `COc1ccc(CC2c3cc(OC)c(OC)c(OC)c3CCN2C)cc1` (centres unmarked) [compound 41, 1-(4'-Methoxybenzyl)-5,6,7-trimethoxy-2-methyl-1,2,3,4-tetrahydroisoquinoline], the IC50 is 9.7 µM in data set [1] (setting [2]); above 40 µM in the data set with tubulin (setting [3]); above 25 µM in the data set on MLM melanoma (setting [4]); 22.7 µM in the data set on MCF-7 breast carcinoma (setting [5]); 11.4 µM in the data set with A-549 lung carcinoma (setting [6]); 8.8 µM with SKMEL-5 melanoma.

Regarding `COc1ccc(NC(=O)c2cc(OC)c(OC)c(OC)c2)cc1` [11a, 3,4,5-Trimethoxy-N-(4-methoxyphenyl)benzamide], the IC50 was 22.7 µM in data set [1] (setting [2]); above 25 µM with MLM melanoma (setting [4]); 12.2 µM in the data set with MCF-7 breast carcinoma (setting [5]); 14.1 µM in the data set on A-549 lung carcinoma (setting [6]); above 25 µM in the data set on SKMEL-5 melanoma. Further, the “inhibition of tubulin polymerization (in words)” value in the data set on tubulin is “lower inhibitory activity”.

In the case of `COc1ccc(/C=C\c2cc(OC)c(O[Si](C)(C)C(C)(C)C)c(OC)c2)cc1` [15k, (Z)-1-[4-{(t-Butyldimethylsilyl)-oxy}-3,5-(dimethoxy)-phenyl]-2-(4-methoxyphenyl)ethene], the IC50 is 9 µM in data set [1] (setting [2]); above 40 µM in the data set with tubulin (setting [3]); above 25 µM with MLM melanoma (setting [4]); above 25 µM in the data set on MCF-7 breast carcinoma (setting [5]); above 25 µM with A-549 lung carcinoma (setting [6]); above 25 µM with SKMEL-5 melanoma.

Take `COc1cc(/C=C\c2ccc(SC)cc2)cc(OC)c1OC` [compound 15c, (Z)-1-(4-Methylthiophenyl)-2-(3,4,5-trimethoxyphenyl)ethene]: the figures for the “cytotoxicity relative to 5a (in words)” value (in data set [1] (HT-29 cells); with MCF-7 breast carcinoma (MCF cell culture); in the data set with SKMEL-5 melanoma (SKMEL-5 cells)) were “about one order of magnitude more potent”, “about one order of magnitude less cytotoxic than 5a” and “two orders of magnitude more potent”, respectively. The IC50 in data set [1] (setting [2]) was determined as 1.8e-05 µM; in the data set on tubulin (setting [3]), 6.2 µM; in the data set with MLM melanoma (setting [4]), 0.0033 µM; with MCF-7 breast carcinoma (setting [5]), 0.0054 µM; with A-549 lung carcinoma (setting [6]), 0.00019 µM; with SKMEL-5 melanoma, 4e-06 µM. Also, the “cytotoxicity relative to parent (in words)” value in the data set with MLM melanoma (MLM) and in the data set on A-549 lung carcinoma (A-549) was “as cytotoxic as the parent compound” throughout.

Consider `COC(=O)/C(=C/c1cccc(OC)c1)c1cc(OC)c(OC)c(OC)c1` [compound 24b, (E)-Methyl 3-(3-methoxyphenyl)-2-(3,4,5-trimethoxy-phenyl)-prop-2-enoate], for which the IC50 is 0.7 µM in data set [1] (setting [2]); above 40 µM in the data set with tubulin (setting [3]); 15.5 µM in the data set with MLM melanoma (setting [4]); 1.3 µM in the data set with MCF-7 breast carcinoma (setting [5]); 1.3 µM with A-549 lung carcinoma (setting [6]); 1.5 µM in the data set with SKMEL-5 melanoma.

For the compound `COc1ccc(C(Cc2cc(OC)c(OC)c(OC)c2)C(=O)O)cc1` (centres unmarked) [compound 33, 2-(4-Methoxyphenyl)-3-(3,4,5-trimethoxyphenyl)propionic acid], the IC50 in data set [1] (setting [2]) was 9.4 µM; in the data set on tubulin (setting [3]), above 40 µM; in the data set with MLM melanoma (setting [4]), above 25 µM; in the data set with MCF-7 breast carcinoma (setting [5]) it was above 25 µM; in the data set on A-549 lung carcinoma (setting [6]), 14.3 µM; with SKMEL-5 melanoma, 7.4 µM.

Values taken from patent US5430062A, “Stilbene derivatives as anticancer agents” (priority 1993, dated 1995).
